This passage reports IC50 results from US7829572B2 (Pfizer Inc, priority 2006, dated 2010).

The target in the experiment is T1, calcium receptor (CasR) (Homo sapiens, UniProt P41180).
T1 construct: expressed in transfected cells; host or cells: HEK 293
T1 sequence (P41180 20-1078): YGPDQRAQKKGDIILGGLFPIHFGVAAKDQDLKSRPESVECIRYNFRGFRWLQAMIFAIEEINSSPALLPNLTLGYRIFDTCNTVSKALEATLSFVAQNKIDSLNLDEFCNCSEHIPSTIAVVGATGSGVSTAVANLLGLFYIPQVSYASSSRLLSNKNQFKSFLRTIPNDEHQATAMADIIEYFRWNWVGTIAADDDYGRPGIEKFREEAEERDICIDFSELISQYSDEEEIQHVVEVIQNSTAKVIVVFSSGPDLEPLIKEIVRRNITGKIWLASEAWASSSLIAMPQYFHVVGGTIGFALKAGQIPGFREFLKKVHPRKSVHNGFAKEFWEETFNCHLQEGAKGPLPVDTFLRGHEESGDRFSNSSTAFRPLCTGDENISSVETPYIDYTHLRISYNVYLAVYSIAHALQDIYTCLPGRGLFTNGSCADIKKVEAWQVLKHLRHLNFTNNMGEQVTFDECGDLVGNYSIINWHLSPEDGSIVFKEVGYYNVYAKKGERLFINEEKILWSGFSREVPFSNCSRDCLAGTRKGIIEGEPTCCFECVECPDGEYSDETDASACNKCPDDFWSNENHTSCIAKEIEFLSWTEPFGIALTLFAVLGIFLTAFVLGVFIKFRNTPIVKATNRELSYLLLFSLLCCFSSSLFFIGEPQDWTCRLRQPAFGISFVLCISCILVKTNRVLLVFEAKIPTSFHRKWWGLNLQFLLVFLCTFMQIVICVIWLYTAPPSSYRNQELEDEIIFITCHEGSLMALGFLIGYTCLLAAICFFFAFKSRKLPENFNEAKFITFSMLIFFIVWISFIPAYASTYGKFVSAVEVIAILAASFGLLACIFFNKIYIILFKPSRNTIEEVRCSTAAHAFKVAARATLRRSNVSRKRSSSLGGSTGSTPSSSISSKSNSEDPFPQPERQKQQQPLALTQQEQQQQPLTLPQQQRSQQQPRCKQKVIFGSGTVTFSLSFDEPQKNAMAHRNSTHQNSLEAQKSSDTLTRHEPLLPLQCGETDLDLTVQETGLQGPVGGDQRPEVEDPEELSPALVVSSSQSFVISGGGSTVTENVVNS
Nature of the experiment: FLIPR Assay for Evaluating the Potency and Selectivity of Test Compounds. The format is cell-based. The conditions noted are these: HEK 293 cells expressing CasR; 30 minutes pre-incubation; stimulation by 1.7 mM Ca2+; read 42 seconds after stimulation. An excerpt:
FLIPR Assay for Evaluating the Potency and Selectivity of Test Compounds
Human kidney cell (HEK 293) expressing the calcium receptor (CasR) are used to detect antagonists of the receptor using Fluorometric imaging plate reader (FLIPR, Molecular Devices, Sunnyvale Calif.). Receptor activation by extracellular calcium results in the release of calcium from intracellular stores into the cytosol. A fluorescent indicator (Fluo-4) is internalized by the cells from growth media and interacts with calcium released into the cytosol to provide a means of quantifying intracellular Ca^2+ levels and receptor agonism/antagonism. Fluorescence intensity is detected by the FLIPR CCD camera and traced as a function of time. Potential antagonists are identified by their ability to decrease this fluorescent response.
Prior to the addition of test compound cells are washed with a 10 mM HEPES buffer solution. The test compound, for example the compound of Example 1, is added at various doses (from 1 µM to 3 nM) and pre-incubated with cells for 30 minutes followed by stimulation of the CasR by the addition of 1.7 mM Ca^2+. IC50 values are based on the ability of the cells to inhibit the Ca^2+ induced increase in intracellular Ca^2+. Fluorescence signal is read 42 seconds after the stimulation of the CasR by the addition of 1.7 mM Ca^2+.
The following table provides FLIPR IC50 data for the specified Examples. The IC50s are reported as micromolar concentration with n being the number of times the particular compound was assayed.

Consider `C[C@@H](Cc1ccc(F)c(F)c1)n1c(-c2ncccc2O)nc2ccnc(C(F)(F)F)c2c1=O` [Example 37b, (S)-3-(1-(3,4-difluorophenyl)propan-2-yl)-2-(3-hydroxypyridin-2-yl) 5-(trifluoromethyl)pyrido[4,3-d]pyrimidin-4(3H)-one], for which the IC50 stood at 2120 nM.
In the case of `CC(C)Oc1nccc2nc(-c3ccccc3O)n(CCc3ccccc3)c(=O)c12` [Example 35, 2-(2-Hydroxy-phenyl)-5-isopropoxy-3-phenethyl-3H-pyrido[4,3-d]pyrimidin-4-one], the IC50 amounted to 380 nM.
The result for `CC(C)COc1nccc2nc(-c3ccccc3O)n(CCc3ccccc3)c(=O)c12` [Example 34, 2-(2-Hydroxy-phenyl)-5-isobutoxy-3-phenethyl-3H-pyrido[4,3-d]pyrimidin-4-one] reads 1470 nM.
The result for `CCC(Cc1ccccc1F)n1c(-c2ncccc2O)nc2ccnc(C(F)(F)F)c2c1=O` (stereo not drawn) [Example 44, 3-(1-(2-fluorophenyl)butan-2-yl)-2-(3-hydroxypyridin-2-yl)-5-(trifluoromethyl)pyrido[4,3-d]pyrimidin-4(3H)-one] reads 2440 nM; that for `O=c1c2c(C(F)(F)F)nccc2nc(-c2cccc(F)c2O)n1CCc1ccccc1` [Example 2, 2-(3-Fluoro-2-hydroxy-phenyl)-3-phenethyl-5-trifluoromethyl-3H-pyrido[4,3-d]pyrimidin-4-one], 620 nM; that for `O=c1c2c(N3CCCC3)nccc2nc(-c2ccccc2O)n1CCc1ccccc1` [Example 18, 2-(2-Hydroxy-phenyl)-3-phenethyl-5-pyrrolidin-1-yl-3H-pyrido[4,3-d]pyrimidin-4-one], 12300 nM.
The result for `O=c1c2c(N3CCOCC3)nccc2nc(-c2ccccc2O)n1CCc1ccccc1` [Example 22, 2-(2-Hydroxy-phenyl)-5-morpholin-4-yl-3-phenethyl-3H-pyrido[4,3-d]pyrimidin-4-one] reads more than 100000 nM.
For the compound `CC(=O)Nc1cccnc1-c1nc2ccnc(C(F)(F)F)c2c(=O)n1CCc1ccccc1F` [Example 52, N-(2-(3-(2-fluorophenethyl)-4-oxo-5-(trifluoromethyl)-3,4-dihydropyrido[4,3-d]pyrimidin-2-yl)pyridin-3-yl)acetamide], the half-maximal inhibitory concentration (IC50) amounted to 230 nM.
The result for `N#Cc1ccccc1-c1nc2ccnc(C(F)(F)F)c2c(=O)n1CCC1CCCCC1` [Example 62, 2-(3-(2-cyclohexylethyl)-4-oxo-5-(trifluoromethyl)-3,4-dihydropyrido[4,3-d]pyrimidin-2-yl)benzonitrile] reads 4630 nM; that for `O=c1c2c(C(F)(F)F)nccc2nc(-c2ccccc2O)n1CCc1cccc(F)c1` [Example 8], 90 nM; that for `C[C@H](Cc1ccccc1)n1c(-c2ccccc2O)nc2ccnc(C(F)(F)F)c2c1=O` [Example 4a, (R)-2-(2-Hydroxy-phenyl)-3-(1-methyl-2-phenyl-ethyl)-5-trifluoromethyl-3H-pyrido[4,3-d]pyrimidin-4-one], 60 nM.
As to `Nc1scnc1-c1nc2ccnc(C(F)(F)F)c2c(=O)n1CCc1ccccc1` [Example 78, 2-(5-aminothiazol-4-yl)-3-phenethyl-5-(trifluoromethyl)pyrido[4,3-d]pyrimidin-4(3H)-one], the IC50 worked out at 9830 nM.
The result for `C[C@H](Cc1ccccc1)n1c(-c2cccc(F)c2O)nc2ccnc(C(F)(F)F)c2c1=O` [Example 50, (R)-2-(3-fluoro-2-hydroxyphenyl)-3-(1-phenylpropan-2-yl)-5-(trifluoromethyl)pyrido[4,3-d]pyrimidin-4(3H)-one] reads 30 nM; that for `CNc1nccc2nc(-c3ccccc3O)n(CCc3ccccc3)c(=O)c12` [Example 16, 2-(2-Hydroxy-phenyl)-5-methylamino-3-phenethyl-3H-pyrido[4,3-d]pyrimidin-4-one], 10800 nM.
The result for `C[C@H](Cc1ccccc1)n1c(C2CCCC2)nc2ccnc(C(F)(F)F)c2c1=O` [Example 57, (R)-2-cyclopentyl-3-(1-phenylpropan-2-yl)-5-(trifluoromethyl)pyrido[4,3-d]pyrimidin-4(3H)-one] reads 1670 nM; that for `C[C@H](Cc1ccccc1)n1c(-c2ncccc2O)nc2ccnc(C(F)(F)F)c2c1=O` [Example 5, (R)-2-(3-Hydroxy-pyridin-2-yl)-3-(1-methyl-2-phenyl-ethyl)-5-trifluoromethyl-3H-pyrido[4,3-d]pyrimidin-4-one], 20 nM.
The result for `O=c1c2c(C(F)(F)F)nccc2nc(-c2ncccc2O)n1CCc1cccc(F)c1F` [Example 40, 3-(2,3-difluorophenethyl)-2-(3-hydroxypyridin-2-yl)-5-(trifluoromethyl)pyrido[4,3-d]pyrimidin-4(3H)-one] reads 460 nM; that for `O=c1c2c(C(F)(F)F)nccc2nc(-c2ncccc2C(F)(F)F)n1CCC1CCCCC1` [Example 82, 3-(2-cyclohexylethyl)-5-(trifluoromethyl)-2-(3-(trifluoromethyl)pyridin-2-yl)pyrido[4,3-d]pyrimidin-4(3H)-one], 2530 nM; that for `O=c1c2c(N3CCC3)nccc2nc(-c2ccccc2O)n1CCc1ccccc1` [Example 23, 5-Azetidin-1-yl-2-(2-hydroxy-phenyl)-3-phenethyl-3H-pyrido[4,3-]d-pyrimidin-4-one], 13700 nM.
For the compound `Cc1cc2nc(-c3ccccc3O)n(CCc3ccccc3)c(=O)c2c(C(F)(F)F)n1` [Example 10, 2-(2-Hydroxy-phenyl)-7-methyl-3-(phenyl-ethyl)-5-trifluoromethyl-3H-pyrido[4,3-d]pyrimidin-4-one], the IC50 was 120 nM.
As for `COc1ccccc1CCn1c(-c2ncccc2O)nc2ccnc(C(F)(F)F)c2c1=O` [Example 39, 3-(2-methoxyphenethyl)-2-(3-hydroxypyridin-2-yl)-5-(trifluoromethyl)pyrido[4,3-d]pyrimidin-4(3H)-one], the IC50 was found to be 110 nM.
The result for `O=c1c2c(C(F)(F)F)nccc2nc(-c2ncccc2O)n1CCC1CCCC1` [Example 46, 3-(2-cyclopentylethyl)-2-(3-hydroxypyridin-2-yl)-5-(trifluoromethyl)pyrido[4,3-d]pyrimidin-4(3H)-one] reads 290 nM.
The result for `O=c1c2c(C(F)(F)F)nccc2nc(-c2ncccc2O)n1CC1CCOCC1` [Example 67, 2-(3-hydroxypyridin-2-yl)-3-((tetrahydro-2H-pyran-4-yl)methyl)-5-(trifluoromethyl)pyrido[4,3-d]pyrimidin-4(3H)-one] reads more than 1000 nM; that for `O=c1c2c(C(F)(F)F)nccc2nc(-c2ncccc2O)n1CCc1ccccc1F` [Example 12, 3-[2-(2-Fluoro-phenyl)-ethyl-]2-(3-hydroxy-pyridin-2-yl)-5-trifluoromethyl-3H-pyrido[4,3-d]pyrimidin-4-one], 250 nM; that for `O=c1c2c(C(F)(F)F)nccc2nc(-c2cscn2)n1CCc1ccccc1` [Example 54, 3-phenethyl-2-(thiazol-4-yl)-5-(trifluoromethyl)pyrido[4,3-d]pyrimidin-4(3H)-one], 710 nM.
The result for `COc1cccc(F)c1CCn1c(-c2ncccc2O)nc2ccnc(C(F)(F)F)c2c1=O` [Example 42, 3-(2-fluoro-6-methoxyphenethyl)-2-(3-hydroxypyridin-2-yl)-5-(trifluoromethyl)pyrido[4,3-d]pyrimidin-4(3H)-one] reads 1120 nM; that for `COc1ccccc1CCn1c(-c2ccccc2O)nc2ccnc(C(F)(F)F)c2c1=O` [Example 55, 3-(2-methoxyphenethyl)-2-(2-hydroxyphenyl)-5-(trifluoromethyl)pyrido[4,3-d]pyrimidin-4(3H)-one], 720 nM.
